Molecules are shown by their SMILES.

For one assay, the target named is F508del CFTR (Homo sapiens, UniProt P13569, DEL508-508). The assay is described as follows: Patch-clamp single-channel recording, inside-out patches of CHO cells. Type of assay: cell-based, hamster. On the procedure:
A more complete description of the patch-clamp methodology can be found in a recent publication ([Lin et al., 2016]). Briefly, CHO (Chinese Hamster Ovary) cells were transiently transfected with pcDNA plasmids containing a F508del CFTR construct and pEGFP-C3. After transfection, cells were trypsinized and plated onto 35 mm tissue culture dishes dispersed with sterilized glass chips. Electrophysiological experiments were performed 3–7 days following transfection.
Patch-clamp experiments were performed at room temperature with an EPC-9 patch clamp amplifier (HEKA Instruments, Holliston, MA, United States). Recording microelectrodes were made from borosilicate capillary glass with a two-stage pipette puller (Narishige, Tokyo, Japan). The pipette tip was polished with a home-made microforge before use. The pipette solution contained (in mM) 140 NMDG (N-methyl-D-glucamine)-Cl (Fisher Biotec), 2 MgCl2 (Fisher Biotec, Perth, WA, Australia), 5 CaCl2 (Fisher Biotec), and 10 HEPES (Fisher Biotec), pH 7.4, with NMDG (see [Lin et al., 2016] for details). The pipette resistance when filled with the regular pipette solution was 3–5 MΩ. Once the tip of the pipette and the cell membrane established GΩ resistance, the electrode was quickly pulled away from the cell to form an inside-out patch, where the cytosolic side of the membrane was exposed to the perfusion solution. Cells were perfused with a bath solution having (in mM) 145 NaCl (Fisher Biotec), 5 KCl (Fisher Biotec), 2 MgCl2, 1 CaCl2, 5 glucose (Fisher Biotec), 5 HEPES, and 20 sucrose (Fisher Biotec), pH 7.4, with NaOH (Fisher Biotec). After establishing an inside-out configuration, the patch was perfused with a standard perfusion solution (i.e., intracellular solution) containing (in mM) 150 NMDG-Cl, 2 MgCl2, 10 EGTA (Fisher Biotec), and 8 Tris (Fisher Biotec), pH 7.4, with NMDG (see [Lin et al., 2016] for details) containing the catalytic subunit of protein kinase A (PKA) and 2 mM ATP. Once the phosphorylation-dependent activation of CFTR reached a plateau, 10 μM GLPG3067 was applied in the continuous presence of 2 mM ATP until a steady state was attained.
Microscopic kinetic analysis was performed with a program provided by Dr. László Csanády (Semmelweis University, Budapest, Hungary) ([Csanády, 2000]). Experiments were performed four to five times and averages and SEM were calculated. The resulting Open probability (Po) values and single-channel kinetic parameters were compared with paired t-test (Excel, Microsoft); P < 0.05 is considered statistically significant.

In a further assay the target is T1, E92K CFTR (Homo sapiens, UniProt P13569, E92K).
T1 construct: expressed in transfected cells; host or cells: HEK293
Kind of assay: YFP halide assay (YHA), HEK293, E92K. The assay is classed as cell-based. The note with it: for rescue of E92K: YFP halide assay. On the procedure:
(§1) HEK293 cells were transfected with 10–80 ng of plasmid encoding F508del, E92K, P67L, V232D, F508del/G550E, F508del/I539T or wild type CFTR and 20 ng of plasmid encoding YFP (H148Q/I152L/F47L) using jetPEI (Polyplus transfection). Directly after transfection, cells were seeded in black 96-well plates coated with poly-D-lysine at a density of 70,000 cells per well. The next day, cells were treated with corrector(s) for 24 h. After this incubation period, cells were washed twice with DPBS with Ca^2+ and Mg^2+. Subsequently, cells were treated with 10 μM forskolin and the desired concentration of potentiator in a volume of 40 μl and incubated at room temperature for 10 min, a time point optimized in previous experiments resulting in a good window (positive control/negative control > 2) and signal to background ratio. YFP fluorescence was measured using an EnVision plate reader (PerkinElmer). […] The excitation wavelength was 485 nm and the emission wavelength 530 nm. The capacity of potentiators to increase CFTR channel function was expressed as 1-(fluorescence 7 s after NaI addition (F)/fluorescence before NaI addition (F0)). For the different mutants, data was normalized using the formula: normalized response = 100^∗(absolute response – negative control response)/(GLPG2222 response – negative response) as such, GLPG2222 response corresponds to 100. Concentration–response experiments were fitted using a 4 parameter hill function of the form Response = Bottom + (Top - Bottom)/(1 + (EC50/concentration) ˆHillSlope)) to determine EC50 values.
(§2) FIGURE 7 YHA assay using CFTR mutant overexpression in HEK293 cells. Cells were incubated for 24 h with either a dose range of GLPG2737, GLPG2222 or VX809. After washing, cells were triggered with forskolin (50 μM for F508del, E92K, V232D and F508del/I539T, 10 μM for P67L or 1 μM for F508del/G550E) and 0.5 μM potentiator and YFP fluorescence was measured. Efficacy was determined using 10 μM GLPG2222 as positive control and DMSO as negative control in the assay. (A) Table with potency and efficacy obtained for the mutants and compounds tested. (B) Dose–response curves of GLPG2737. (C) Dose–response curves of GLPG2222. (D) Dose–response curves of VX-809. For panels (B–D), E92K mutant is represented in black, F508del mutant in blue, F508del/I539T mutant in green and V232D mutant in gray, all concentrations are tested in duplicate. […] All values containing these digits are best readings, e.g. GLPG2222 P67L EC50 206 (± 98), GLPG2222 E92K EC50 503 (± 109), VX809 F508del EC50 286 (± 35), VX809 P67L % of reference 88 (± 3), GLPG2737 F508del % of reference 138 (± 9). / GLPG2737, EC50 for P67L and E92K is printed as NA; left out because no value is given. / VX809, E92K EC50 error: 17, a digit may be missing.

In a further assay the target is T2, P67L CFTR (Homo sapiens, UniProt P13569, P67L).
T2 construct: expressed in transfected cells; host or cells: HEK293
Kind of assay: YFP halide assay (YHA), HEK293, P67L. The note with it: for rescue of P67L: YFP halide assay. Type of assay: cell-based. As for the experimental part: as §1, §2

The next assay concerns the target T3, F508del/G550E CFTR (Homo sapiens, UniProt P13569, DEL508-508/G550E).
T3 construct: expressed in transfected cells; host or cells: HEK293
Kind of assay: YFP halide assay (YHA), HEK293, F508del/G550E. As to conditions: 24 h; 1 μM forskolin + 0.5 μM potentiator. Type of assay: cell-based. As for the experimental part:
as §1, with “For the different mutants, data was normalized using the formula: normalized response = 100^∗(absolute response – negative control response)/(GLPG2222 response – negative response) as such, GLPG2222 response corresponds to 100. Concentration–response experiments were fitted using a 4 parameter hill function of the form Response = Bottom + (Top - Bottom)/(1 + (EC50/concentration) ˆHillSlope)) to determine EC50 values.” left out
FIGURE 7 YHA assay using CFTR mutant overexpression in HEK293 cells. […] After washing, cells were triggered with forskolin (50 μM for F508del, E92K, V232D and F508del/I539T, 10 μM for P67L or 1 μM for F508del/G550E) and 0.5 μM potentiator and YFP fluorescence was measured. Efficacy was determined using 10 μM GLPG2222 as positive control and DMSO as negative control in the assay. […] All values containing these digits are best readings, e.g. GLPG2222 P67L EC50 206 (± 98), GLPG2222 E92K EC50 503 (± 109), VX809 F508del EC50 286 (± 35), VX809 P67L % of reference 88 (± 3), GLPG2737 F508del % of reference 138 (± 9). / GLPG2737, EC50 for P67L and E92K is printed as NA; left out because no value is given. / VX809, E92K EC50 error: 17, a digit may be missing.

Another assay has as its target T4, A455E CFTR (Homo sapiens, UniProt P13569, A455E).
T4 construct: expressed in transfected cells; host or cells: HEK293
The assay is described as follows: YFP halide assay (YHA), HEK293, A455E. The note with it: 24 h; forskolin + 0.5 μM potentiator. Type of assay: cell-based.

Setting [1] is: cells treated 24 h with 0.5 μM GLPG2222 only, n = 3.
Setting [2] is: acute addition of 1 μM GLPG2737 on top of 0.5 μM GLPG2222 + 10 μM GLPG3067.
[3] abbreviates: cells pre-treated 24 h with 0.5 μM GLPG2222 + 1 μM GLPG2737 + 10 μM GLPG3067, compounds in recording solution.
[4] abbreviates: same pre-treatment, after washout of GLPG2737 (GLPG2222 + GLPG3067 present).

Chain of F508del CFTR (P13569 with tags, fused parts or gaps DEL508-508): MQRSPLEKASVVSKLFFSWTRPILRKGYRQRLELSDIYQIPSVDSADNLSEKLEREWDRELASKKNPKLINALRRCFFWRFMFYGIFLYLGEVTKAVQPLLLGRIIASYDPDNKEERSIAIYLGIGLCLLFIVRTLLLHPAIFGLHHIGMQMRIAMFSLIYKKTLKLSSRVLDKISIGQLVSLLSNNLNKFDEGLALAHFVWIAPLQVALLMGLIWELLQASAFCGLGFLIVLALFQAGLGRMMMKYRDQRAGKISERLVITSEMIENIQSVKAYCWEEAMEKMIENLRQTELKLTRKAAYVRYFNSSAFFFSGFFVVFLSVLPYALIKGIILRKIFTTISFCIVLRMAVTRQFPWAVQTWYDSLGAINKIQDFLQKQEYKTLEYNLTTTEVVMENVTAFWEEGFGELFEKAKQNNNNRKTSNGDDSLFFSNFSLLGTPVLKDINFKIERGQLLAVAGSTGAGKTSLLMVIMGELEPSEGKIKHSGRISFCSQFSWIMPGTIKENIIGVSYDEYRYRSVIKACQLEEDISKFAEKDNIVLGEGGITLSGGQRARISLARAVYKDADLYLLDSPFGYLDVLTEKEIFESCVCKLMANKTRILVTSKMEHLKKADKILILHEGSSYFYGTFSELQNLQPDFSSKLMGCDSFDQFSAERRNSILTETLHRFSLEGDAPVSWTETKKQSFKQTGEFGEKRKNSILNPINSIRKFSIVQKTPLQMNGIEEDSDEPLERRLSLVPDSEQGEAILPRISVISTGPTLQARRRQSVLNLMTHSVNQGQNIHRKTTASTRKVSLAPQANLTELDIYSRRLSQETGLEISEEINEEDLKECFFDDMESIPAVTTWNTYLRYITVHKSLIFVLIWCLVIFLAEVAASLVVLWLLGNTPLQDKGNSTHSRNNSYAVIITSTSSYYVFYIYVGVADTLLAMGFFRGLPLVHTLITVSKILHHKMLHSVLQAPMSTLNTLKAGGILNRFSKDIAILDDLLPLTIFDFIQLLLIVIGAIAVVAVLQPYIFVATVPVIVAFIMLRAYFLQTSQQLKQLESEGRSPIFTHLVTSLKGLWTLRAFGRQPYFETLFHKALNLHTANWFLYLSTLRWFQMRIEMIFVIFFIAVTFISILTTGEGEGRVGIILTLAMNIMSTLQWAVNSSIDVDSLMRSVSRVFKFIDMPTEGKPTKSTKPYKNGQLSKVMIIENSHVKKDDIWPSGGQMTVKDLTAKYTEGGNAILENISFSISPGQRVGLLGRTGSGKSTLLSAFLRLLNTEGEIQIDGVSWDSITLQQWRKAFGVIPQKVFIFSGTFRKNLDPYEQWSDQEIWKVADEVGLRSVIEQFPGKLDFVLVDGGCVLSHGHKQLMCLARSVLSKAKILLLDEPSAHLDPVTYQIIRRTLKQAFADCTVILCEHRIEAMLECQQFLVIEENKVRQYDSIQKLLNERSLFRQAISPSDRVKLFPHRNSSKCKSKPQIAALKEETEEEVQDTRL
T1 sequence (P13569 whole entry E92K): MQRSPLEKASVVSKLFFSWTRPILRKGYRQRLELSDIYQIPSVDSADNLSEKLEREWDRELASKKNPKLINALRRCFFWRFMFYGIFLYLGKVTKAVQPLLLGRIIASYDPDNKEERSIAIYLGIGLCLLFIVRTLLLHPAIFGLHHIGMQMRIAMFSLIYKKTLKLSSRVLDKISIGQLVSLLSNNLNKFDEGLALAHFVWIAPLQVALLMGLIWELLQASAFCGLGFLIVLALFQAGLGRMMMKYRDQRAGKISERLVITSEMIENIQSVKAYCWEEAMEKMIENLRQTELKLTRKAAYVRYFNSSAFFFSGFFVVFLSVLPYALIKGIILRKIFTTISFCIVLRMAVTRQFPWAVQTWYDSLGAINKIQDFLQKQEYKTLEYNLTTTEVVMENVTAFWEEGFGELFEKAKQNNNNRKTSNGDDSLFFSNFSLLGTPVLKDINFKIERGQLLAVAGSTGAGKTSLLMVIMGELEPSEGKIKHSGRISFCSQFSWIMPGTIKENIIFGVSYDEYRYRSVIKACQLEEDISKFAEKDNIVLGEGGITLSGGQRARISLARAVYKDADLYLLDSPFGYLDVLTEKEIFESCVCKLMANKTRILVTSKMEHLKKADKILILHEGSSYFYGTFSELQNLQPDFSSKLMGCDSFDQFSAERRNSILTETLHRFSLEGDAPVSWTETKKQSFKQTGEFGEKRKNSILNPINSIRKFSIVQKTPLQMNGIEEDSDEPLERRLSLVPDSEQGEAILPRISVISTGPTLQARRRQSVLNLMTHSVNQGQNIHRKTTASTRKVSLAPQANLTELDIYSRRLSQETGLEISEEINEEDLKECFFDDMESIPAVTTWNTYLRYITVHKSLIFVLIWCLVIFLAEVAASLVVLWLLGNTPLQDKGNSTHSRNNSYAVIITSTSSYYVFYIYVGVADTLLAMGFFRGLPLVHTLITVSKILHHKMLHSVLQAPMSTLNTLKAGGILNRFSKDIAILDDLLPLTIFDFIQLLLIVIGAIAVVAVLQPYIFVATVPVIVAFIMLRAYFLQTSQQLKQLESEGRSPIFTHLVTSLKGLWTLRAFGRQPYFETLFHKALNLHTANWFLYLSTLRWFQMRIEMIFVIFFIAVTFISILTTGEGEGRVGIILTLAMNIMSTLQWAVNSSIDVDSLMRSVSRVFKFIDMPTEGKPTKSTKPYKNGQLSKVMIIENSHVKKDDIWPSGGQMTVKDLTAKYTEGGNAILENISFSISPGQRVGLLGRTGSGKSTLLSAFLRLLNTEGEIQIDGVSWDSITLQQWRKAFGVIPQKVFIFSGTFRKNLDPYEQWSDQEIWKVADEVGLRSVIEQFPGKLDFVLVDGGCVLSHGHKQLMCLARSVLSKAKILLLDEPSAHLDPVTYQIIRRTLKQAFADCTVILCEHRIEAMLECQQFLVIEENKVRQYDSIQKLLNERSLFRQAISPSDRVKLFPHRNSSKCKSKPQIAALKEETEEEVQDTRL
T2 sequence (P13569 whole entry P67L): as the sequence (P13569 whole entry E92K) above, with P67L, K92E counted along it
T4 sequence (P13569 whole entry A455E): as the sequence (P13569 whole entry E92K) above, with K92E, A455E counted along it
T3 sequence (P13569 with tags, fused parts or gaps DEL508-508/G550E): as the sequence (P13569 with tags, fused parts or gaps DEL508-508) above, with G549E counted along it

Take `O=C(O)c1ccc([C@H]2C[C@@H](NC(=O)C3(c4ccc5c(c4)OC(F)(F)O5)CC3)c3ccc(OC(F)F)cc3O2)cc1` [GLPG2222, 4-[(2 R,4 R)-4-({[1-(2,2-Difluoro-1,3-benzodioxol-5-yl)cyclopropyl]carbonyl}amino)-7-(difluoromethoxy)-3,4-dihydro-2 H -chromen-2-yl]benzoic Acid]: on F508del CFTR (setting [1]), the Po turned out to be 0.04 ± 0.01. The τc at F508del CFTR (setting [1]) came out at 6.88 ± 3.36 s. The compound also came in with a τo on F508del CFTR (setting [1]) of 0.25 ± 0.08 s. For the same compound, the EC50 was 503 nM at E92K CFTR (24 h, 50 μM forskolin + 0.5 μM potentiator); 206 nM on P67L CFTR (24 h, 10 μM forskolin + 0.5 μM potentiator); 9 nM on F508del/G550E CFTR; 33 nM at A455E CFTR. Also, at E92K CFTR, the “rescue of E92K” value was “could be rescued”. The “rescue of P67L” value on P67L CFTR is “could be rescued”.
On to `COC1CCN(C2CCN(c3cc(C(=O)NS(=O)(=O)N(C)C)nc4c3c(C3CCC3)nn4-c3ccc(F)cc3)CC2)CC1` [GLPG2737], for which, at F508del CFTR (setting [2]), the Po is listed as 0.15 ± 0.01, the τc is recorded as 6.42 ± 1.24 s and the τo was determined as 1.37 ± 0.33 s. For the same compound, at F508del CFTR (setting [3]), the “apparent Po” value is recorded as 0.21 ± 0.003, the τc is listed as 10.35 ± 2.22 s and the τo is 2.68 ± 0.59 s. Moreover, on F508del CFTR (setting [4]), the Po is on record as 0.63 ± 0.05, the τc turned out to be 1.89 ± 0.38 s and the τo worked out at 3.28 ± 0.09 s. In addition, the “rescue of E92K” value at E92K CFTR is given as “absence of rescue”. For the same compound, the “rescue of P67L” value on P67L CFTR is “absence of rescue”. The EC50 on F508del/G550E CFTR worked out at 251 nM. Also, the EC50 on A455E CFTR was more than 2640 nM.

Usually EC50 stands for the concentration that produces a half-maximal response.

For the origin of these results see paper PMC6521598, “Identification of GLPG/ABBV-2737, a Novel Class of Corrector, Which Exerts Functional Synergy With Other CFTR Modulators” (Frontiers in Pharmacology, 2019).
